Laboratory results from ChEMBL document CHEMBL5143594 (Bioorg Med Chem Lett, 2022).

Assays:
Set-up in all cases: species or system Severe acute respiratory syndrome coronavirus 2
[1] = Inhibition of SARS-CoV-2 main protease K90R mutant expressed in Escherichia coli BL21 (DE3) using DABCYL-KTSAVLQ1SGFRKM-E(EDANS)-NH2 as substrate preincubated for 10 mins followed by substrate addition and measured after 5 mins by FRET analysis
[2] = Inhibition of SARS-CoV-2 main protease G15S mutant expressed in Escherichia coli BL21 (DE3) using DABCYL-KTSAVLQ1SGFRKM-E(EDANS)-NH2 as substrate preincubated for 10 mins followed by substrate addition and measured after 5 mins by FRET analysis
[3] = Inhibition of SARS-CoV-2 main protease P132H mutant expressed in Escherichia coli BL21 (DE3) using DABCYL-KTSAVLQ1SGFRKM-E(EDANS)-NH2 as substrate preincubated for 10 mins followed by substrate addition and measured after 5 mins by FRET analysis
[4] = Inhibition of SARS-CoV-2 main protease T21I mutant expressed in Escherichia coli BL21 (DE3) using DABCYL-KTSAVLQ1SGFRKM-E(EDANS)-NH2 as substrate preincubated for 10 mins followed by substrate addition and measured after 5 mins by FRET analysis
[5] = Inhibition of SARS-CoV-2 main protease L205V mutant expressed in Escherichia coli BL21 (DE3) using DABCYL-KTSAVLQ1SGFRKM-E(EDANS)-NH2 as substrate preincubated for 10 mins followed by substrate addition and measured after 5 mins by FRET analysis
[6] = Inhibition of SARS-CoV-2 main protease L89F mutant expressed in Escherichia coli BL21 (DE3) using DABCYL-KTSAVLQ1SGFRKM-E(EDANS)-NH2 as substrate preincubated for 10 mins followed by substrate addition and measured after 5 mins by FRET analysis

In the case of `CC(C)(C)[C@H](NC(=O)C(F)(F)F)C(=O)N1C[C@H]2[C@@H]([C@H]1C(=O)N[C@H](C#N)C[C@@H]1CCNC1=O)C2(C)C`, the IC50 [1] is reported as 12.7 nM, the IC50 [2] is reported as 10.3 nM and the IC50 [3] is reported as 12.2 nM. It also gave an IC50 [4] of 10.1 nM, an IC50 [5] of 10.7 nM and an IC50 [6] of 10.5 nM.
